Test results: US10570131B2, “Heterocyclic compounds and their use in preventing or treating bacterial infections” (MUTABILIS, priority 2015, dated 2020)

Tests used:
E. coli 131119 = assay: microbe, parasite or virus in culture; assay type: cell-based; settings: Escherichia coli, 131119, read-out: MIC compounds of the invention alone
Procedure: (§1) Compounds of the present invention were assessed against genotyped bacterial strains alone or in combination with the β-lactam ceftazidime (CAZ). […] Briefly, compounds alone according to the invention were prepared in DMSO and spotted (2 μL each) on sterile polystyrene plates (Corning, 3788). […] Log phase bacterial suspensions were adjusted to a final density of 5×10^5 cfu/mL in cation-adjusted Mueller-Hinton broth (Becton-Dickinson) and added to each well (98 μL). Microplates were incubated for 16-20 h at 35° C. in ambient air. The MIC of the compounds was defined as the lowest concentration of said compounds that prevented bacterial growth as read by visual inspection.

K. pneumoniae BAA-1898 [1] = assay: microbe, parasite or virus in culture; assay type: cell-based; settings: Klebsiella pneumoniae, BAA1898, read-out: MIC compounds of the invention alone
Procedure: as §1

K. pneumoniae 6299 [2] = assay: microbe, parasite or virus in culture; assay type: cell-based; settings: Klebsiella pneumoniae, 6299, read-out: MIC compounds of the invention alone
Procedure: as §1

P. aeruginosa CIP105250 [3] = assay: microbe, parasite or virus in culture; assay type: cell-based; settings: Pseudomonas aeruginosa, CIP105250, read-out: MIC compounds of the invention alone
Procedure: as §1

OXA-15 = biological target: T1, OXA-15 (Pseudomonas aeruginosa, UniProt Q51574); assay: biochemical
T1 construct: made in house; host or cells: E. coli expression vector
Procedure: (§2) Method 1: β-lactamase Inhibitory Activity, Determination of IC50 (Table 1)
(§3) Enzyme activity was monitored by spectrophotometric measurement of nitrocefin (NCF—TOKU-E, N005) hydrolysis at 485 nm, at room temperature and in assay buffer A: 100 mM Phosphate pH7, 2% glycerol and 0.1 mg/mL Bovine serum albumin (Sigma, B4287). Enzymes were cloned in E. coli expression vector, expressed and purified in house using classical procedures. To a transparent polystyrene plate (Corning, 3628) were added in each well 5 μL DMSO or inhibitor dilutions in DMSO and 80 μL enzyme in buffer A. Plates were immediately read at 485 nm in a microplate spectrophotometer (BioTek, PowerWave HT) to enable background subtraction. After 30 min of pre-incubation at room temperature, 15 μL of NCF (200 μM final) were finally added in each well. Final enzyme concentrations were 0.1 nM (TEM-1), 0.075 nM (SHV-1), 0.4 nM (CTX-M-15), 1 nM (KPC-2), 0.2 nM (P99 AmpC), 0.2 nM (CMY-37), 0.4 nM (AmpC P. aeruginosa), 0.2 nM (OXA-1), 1.2 nM (OXA-11), 0.4 nM (OXA-15) and 0.3 nM (OXA-48). After 20 min incubation at room temperature, plates were once again read at 485 nm. Enzyme activity was obtained by subtracting the final signal by the background, and was converted to enzyme inhibition using non inhibited wells. IC50 curves were fitted to a classical Langmuir equilibrium model with Hill slope using XLFIT (IDBS).

AmpC (P99) = biological target: T2, AmpC (P99) (Enterobacter cloacae, UniProt P05364); assay: biochemical
T2 construct: made in house; host or cells: E. coli expression vector
Procedure: as §2, §3

AmpC (PAE) = biological target: T3, AmpC (PAE) (Pseudomonas aeruginosa, UniProt P24735); assay: biochemical; set-up: species or system P. aeruginosa
T3 construct: made in house; host or cells: E. coli expression vector
Procedure: as §2, §3

E. coli 190317 [4] = assay: MIC of compounds alone, broth microdilution; assay type: cell-based; settings: Escherichia coli; strain 190317 (TEM-1, SHV-12, CTX-M-15, OXA-1); read-out: MIC compounds of the invention alone
Procedure: as §1

E. coli RGN238 = assay: MIC of compounds alone, broth microdilution; assay type: cell-based; settings: Escherichia coli, RGN238, read-out: MIC compounds of the invention alone
Procedure: as §1

P. aeruginosa CIP107051 [5] = assay: MIC of compounds alone, broth microdilution; assay type: cell-based; settings: Pseudomonas aeruginosa; strain CIP107051 (TEM-24); read-out: MIC compounds of the invention alone
Procedure: as §1

E. cloacae P99 [6] = assay: MIC of compounds alone, broth microdilution; assay type: cell-based; settings: Enterobacter cloacae; strain P99 (AmpC); read-out: MIC compounds of the invention alone
Procedure: as §1

E. coli 190317 [7] = assay: MIC of ceftazidime alone and in combination with compounds (synergy), broth microdilution; assay type: cell-based; settings: MIC of ceftazidime with compound fixed at 4 μg/mL; strain 190317 (TEM-1, SHV-12, CTX-M-15, OXA-1)
E. cloacae P99 [8] = assay: as above; assay type: cell-based; settings: MIC of ceftazidime with compound fixed at 4 μg/mL; strain P99 (AmpC)
OXA-48 = biological target: T4, OXA-48 (Klebsiella pneumoniae, UniProt Q6XEC0); assay: β-lactamase inhibitory activity, IC50 (nitrocefin hydrolysis); assay type: biochemical
T4 construct: made in house; host or cells: E. coli expression vector
Procedure: as §2, §3

CTX-M-15 = biological target: T5, CTX-M-15 (Escherichia coli, UniProt Q9EXV5); assay: as above; assay type: biochemical
T5 construct: made in house; host or cells: E. coli expression vector
Procedure: as §2, §3

OXA-1 = biological target: T6, OXA-1 (Escherichia coli, UniProt P13661); assay: as above; assay type: biochemical
T6 construct: made in house; host or cells: E. coli expression vector
Procedure: as §2, §3

KPC-2 = biological target: T7, KPC-2 (Klebsiella pneumoniae, UniProt Q9F663); assay: as above; assay type: biochemical
T7 construct: made in house; host or cells: E. coli expression vector
Procedure: as §2, §3

SHV-1 = biological target: T8, SHV-1 (Klebsiella pneumoniae, UniProt P0AD64); assay: as above; assay type: biochemical
T8 construct: made in house; host or cells: E. coli expression vector
Procedure: as §2, §3

TEM-1 = biological target: T9, TEM-1 (Escherichia coli, UniProt P62593); assay: as above; assay type: biochemical; settings: class (A); 30 min pre-incubation; NCF 200 μM
T9 construct: made in house; host or cells: E. coli expression vector
Procedure: as §2, §3

OXA-11 = biological target: T10, OXA-11 (Pseudomonas aeruginosa, UniProt Q06778); assay: as above; assay type: biochemical
T10 construct: made in house; host or cells: E. coli expression vector
Procedure: as §2, §3

K. pneumoniae BAA-1898 [9] = assay: MIC of ceftazidime alone and in combination with compounds (synergy), broth microdilution; assay type: cell-based; settings: MIC of ceftazidime with compound fixed at 4 μg/mL; strain BAA-1898 (TEM-1, SHV-11, SHV-12, KPC-2)
Procedure: as §1

K. pneumoniae 6299 [10] = assay: as above; assay type: cell-based; settings: MIC of ceftazidime with compound fixed at 4 μg/mL; strain 6299 (TEM-1, SHV-11, OXA-163)
Procedure: as §1

P. aeruginosa CIP105250 [11] = assay: as above; assay type: cell-based; settings: MIC of ceftazidime with compound fixed at 4 μg/mL; strain CIP105250 (OXA-15)
Procedure: as §1

P. aeruginosa CIP107051 [12] = assay: as above; assay type: cell-based; settings: MIC of ceftazidime with compound fixed at 4 μg/mL; strain CIP107051 (TEM-24)
Procedure: as §1

T4 sequence (Q6XEC0 23-265 limits assumed): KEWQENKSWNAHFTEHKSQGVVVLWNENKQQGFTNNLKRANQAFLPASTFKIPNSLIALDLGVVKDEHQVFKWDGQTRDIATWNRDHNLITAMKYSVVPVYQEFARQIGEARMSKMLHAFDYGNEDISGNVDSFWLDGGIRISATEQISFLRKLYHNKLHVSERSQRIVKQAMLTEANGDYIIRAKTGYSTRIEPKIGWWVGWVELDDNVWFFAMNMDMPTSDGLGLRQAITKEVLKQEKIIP
T7 sequence (Q9F663 25-293 limits assumed): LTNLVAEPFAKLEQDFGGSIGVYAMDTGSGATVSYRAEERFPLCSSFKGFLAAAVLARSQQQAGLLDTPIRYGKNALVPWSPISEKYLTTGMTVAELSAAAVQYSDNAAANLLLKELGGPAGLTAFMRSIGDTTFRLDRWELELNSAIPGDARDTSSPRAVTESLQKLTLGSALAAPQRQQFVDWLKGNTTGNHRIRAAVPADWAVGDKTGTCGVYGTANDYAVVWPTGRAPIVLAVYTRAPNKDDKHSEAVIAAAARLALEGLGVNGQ
T3 sequence (P24735 27-397): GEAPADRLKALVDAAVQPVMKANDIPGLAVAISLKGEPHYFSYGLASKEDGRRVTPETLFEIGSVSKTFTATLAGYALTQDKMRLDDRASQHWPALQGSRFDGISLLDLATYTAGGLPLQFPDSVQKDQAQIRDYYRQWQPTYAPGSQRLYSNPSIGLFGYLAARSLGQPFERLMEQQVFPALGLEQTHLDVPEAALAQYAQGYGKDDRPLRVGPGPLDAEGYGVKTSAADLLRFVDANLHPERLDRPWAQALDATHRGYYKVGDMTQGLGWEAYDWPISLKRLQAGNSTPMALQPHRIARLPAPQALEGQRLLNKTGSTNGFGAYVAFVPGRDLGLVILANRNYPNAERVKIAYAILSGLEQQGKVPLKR
T8 sequence (P0AD64 22-286): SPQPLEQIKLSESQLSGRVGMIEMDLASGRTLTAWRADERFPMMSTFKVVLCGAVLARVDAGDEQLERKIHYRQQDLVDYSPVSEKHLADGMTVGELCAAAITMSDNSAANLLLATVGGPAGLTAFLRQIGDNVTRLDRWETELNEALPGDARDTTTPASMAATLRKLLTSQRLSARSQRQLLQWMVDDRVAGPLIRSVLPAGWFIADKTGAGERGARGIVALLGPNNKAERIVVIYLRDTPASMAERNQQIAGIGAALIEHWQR
T9 sequence (P62593 24-286 limits assumed): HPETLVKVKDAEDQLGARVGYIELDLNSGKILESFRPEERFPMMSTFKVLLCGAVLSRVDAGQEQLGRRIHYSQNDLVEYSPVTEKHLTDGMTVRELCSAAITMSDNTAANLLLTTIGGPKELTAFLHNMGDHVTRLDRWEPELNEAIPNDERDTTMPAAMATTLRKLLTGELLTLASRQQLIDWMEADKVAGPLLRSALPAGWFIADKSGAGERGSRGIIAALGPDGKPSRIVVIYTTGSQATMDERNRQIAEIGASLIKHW
T10 sequence (Q06778 21-266): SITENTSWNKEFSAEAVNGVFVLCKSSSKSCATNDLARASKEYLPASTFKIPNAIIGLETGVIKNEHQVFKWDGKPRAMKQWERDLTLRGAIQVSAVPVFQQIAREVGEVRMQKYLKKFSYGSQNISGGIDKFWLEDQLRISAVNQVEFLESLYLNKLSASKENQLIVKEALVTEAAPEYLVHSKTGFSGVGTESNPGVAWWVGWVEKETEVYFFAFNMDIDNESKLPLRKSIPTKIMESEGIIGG
T5 sequence (Q9EXV5 entry or part of it): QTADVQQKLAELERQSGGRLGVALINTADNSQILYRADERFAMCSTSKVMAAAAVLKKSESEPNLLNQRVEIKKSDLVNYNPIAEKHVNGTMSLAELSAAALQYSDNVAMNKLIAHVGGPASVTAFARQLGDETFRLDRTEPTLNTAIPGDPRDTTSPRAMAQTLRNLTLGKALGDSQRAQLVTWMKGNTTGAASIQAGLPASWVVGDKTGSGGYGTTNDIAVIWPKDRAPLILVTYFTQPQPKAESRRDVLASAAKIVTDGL
T6 sequence (P13661 26-276): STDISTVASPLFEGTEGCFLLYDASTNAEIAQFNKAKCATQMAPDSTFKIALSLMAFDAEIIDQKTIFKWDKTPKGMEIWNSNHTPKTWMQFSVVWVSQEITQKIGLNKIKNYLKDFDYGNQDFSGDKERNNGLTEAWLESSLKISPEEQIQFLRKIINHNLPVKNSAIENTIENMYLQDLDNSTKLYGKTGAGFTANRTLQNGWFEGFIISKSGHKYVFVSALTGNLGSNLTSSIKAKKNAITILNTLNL
T2 sequence (P05364 21-381): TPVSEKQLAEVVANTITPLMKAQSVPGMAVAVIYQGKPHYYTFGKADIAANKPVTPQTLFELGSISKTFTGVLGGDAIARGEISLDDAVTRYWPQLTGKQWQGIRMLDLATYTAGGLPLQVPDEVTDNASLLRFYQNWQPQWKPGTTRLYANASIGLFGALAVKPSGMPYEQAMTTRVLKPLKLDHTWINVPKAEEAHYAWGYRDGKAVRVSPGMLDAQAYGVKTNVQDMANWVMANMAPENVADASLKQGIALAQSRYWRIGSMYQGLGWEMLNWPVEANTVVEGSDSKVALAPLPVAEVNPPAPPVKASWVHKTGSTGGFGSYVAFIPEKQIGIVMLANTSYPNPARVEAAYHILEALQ
T1 sequence (Q51574 22-275): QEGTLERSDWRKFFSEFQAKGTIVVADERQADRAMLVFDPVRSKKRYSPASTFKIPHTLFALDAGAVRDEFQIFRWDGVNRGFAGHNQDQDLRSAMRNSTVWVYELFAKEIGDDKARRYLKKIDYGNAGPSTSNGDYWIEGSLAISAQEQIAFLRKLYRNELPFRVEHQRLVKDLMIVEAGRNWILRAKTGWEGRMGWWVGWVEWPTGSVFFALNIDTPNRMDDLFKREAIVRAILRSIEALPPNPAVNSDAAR

Row | SMILES | MIC (E. coli 131119) [µg/mL] | MIC (K. pneumoniae BAA-1898 [1]) [µg/mL] | MIC (K. pneumoniae 6299 [2]) [µg/mL] | MIC (P. aeruginosa CIP105250 [3]) [µg/mL] | IC50 (OXA-15) [nM] | IC50 (AmpC (P99)) [nM] | IC50 (AmpC (PAE)) [nM] | MIC (E. coli 190317 [4]) [µg/mL] | MIC (E. coli RGN238) [µg/mL] | MIC (P. aeruginosa CIP107051 [5]) [µg/mL] | MIC (E. cloacae P99 [6]) [µg/mL] | MIC, combination of CAZ and compounds of the invention at 4 μg/mL (E. coli 190317 [7]) [µg/mL] | MIC, combination of CAZ and compounds of the invention at 4 μg/mL (E. cloacae P99 [8]) [µg/mL] | IC50 (OXA-48) [nM] | IC50 (CTX-M-15) [nM] | IC50 (OXA-1) [nM] | IC50 (KPC-2) [nM] | IC50 (SHV-1) [nM] | IC50 (TEM-1) [nM] | IC50 (OXA-11) [nM] | also measured
1 | CNC(=O)CON=C1C[C@@H](C(=O)OC)N2C[C@@H]1N(OS(=O)(=O)[O-])C2=O.[Na+] (mixture of isomers) [Example 1, sodium [(2S,5S)-2-methoxycarbonyl-4-[2-(methylamino)-2-oxo-ethoxy]imino-7-oxo-1,6-diazabicyclo[3.2.1]octan-6-yl] sulfate] | > 32 | > 32 | > 32 | > 32 | 0.65 | 4.1 | 37 | > 32 | > 32 | > 32 | > 32 | 4 | 64 | 0.51 | 5.4 | 80 | 7.8 | 1.3 | 3.2 | 4.1 | MIC, combination of CAZ and compounds of the invention at 4 μg/mL (K. pneumoniae BAA-1898 [9]): 128 µg/mL; MIC, combination of CAZ and compounds of the invention at 4 μg/mL (K. pneumoniae 6299 [10]): 32 µg/mL; MIC, combination of CAZ and compounds of the invention at 4 μg/mL (P. aeruginosa CIP105250 [11]): 64 µg/mL; MIC, combination of CAZ and compounds of the invention at 4 μg/mL (P. aeruginosa CIP107051 [12]): 64 µg/mL
2 | NC(=O)CON=C1C[C@@H](C(N)=O)N2C[C@@H]1N(OS(=O)(=O)[O-])C2=O.[Na+] (mixture of isomers) [Example 3, sodium [(2S, 5S)-4-(2-amino-2-oxo-ethoxy)imino-2-carbamoyl-7-oxo-1,6-diazabicyclo[3.2.1]octan-6-yl] sulfate] | > 32 | > 32 | > 32 | > 32 | 1.6 | 7.4 | 220 | > 32 | > 32 | > 32 | > 32 | ≤0.125 | 32 | 5.7 | 2 | 17 | 33 | 4.6 | 3 | 48 | MIC, combination of CAZ and compounds of the invention at 4 μg/mL (K. pneumoniae BAA-1898 [9]): 64 µg/mL; MIC, combination of CAZ and compounds of the invention at 4 μg/mL (K. pneumoniae 6299 [10]): 4 µg/mL; MIC, combination of CAZ and compounds of the invention at 4 μg/mL (P. aeruginosa CIP105250 [11]): 32 µg/mL; MIC, combination of CAZ and compounds of the invention at 4 μg/mL (P. aeruginosa CIP107051 [12]): 32 µg/mL
